Laboratory results: PMC11724075, “Small-molecule-induced ERBB4 activation to treat heart failure” (Nature Communications, 2025)
Values joined by “and” are separate entries in the source; they are usually repeats but may differ in a detail not shown here. Equal entries are not always repeated. Values belong to the compound of their own block, whether it stands above or below them.

Legend:
[1] = system: HCFs; experiment: In vitro collagen expression: COL3A1 mRNA in HCFs stimulated with TGF-β1; format: cell-based, human; conditions: for COL3A1 mRNA expression (FC): TGF-β1 10 ng/mL, 24 h, single replicates
Description: HCFs were seeded at a density of 1.5 ×10^5 cells/well in doxycycline-free medium in 12-well plates (Greiner Bio-One, 665180) and incubated overnight. […] Compounds were pre-incubated for 10 min before addition of TGF-β1.
RNA was extracted using Nucleospin RNA XS (Macherey-Nagel, 740902.50) according to the manufacturer’s instructions. For cDNA synthesis, total RNA was added to a mixture containing buffer with random hexamers and reverse transcriptase enzyme (TaqMan reverse transcription reagents, Applied biosystems, N8080234) after which samples were incubated for 10 min at 25 °C, 30 min at 48 °C, and 5 min at 95 °C. RT-qPCR was performed on QuantStudio 3 Real-time PCR system (Applied Biosystems) using Taqman Universal PCR Master Mix (Applied Biosystems, 4304437) and Taqman primers according to the manufacturer’s instructions. Settings were as follows: […] followed by 10 min at 95 °C, 40 cycles (45 cycles for ERBB4) of denaturation at 95 °C for 15 s, and 1 min at 60 °C. All reactions were run in duplicate, and all data were normalized against housekeeping genes glyceraldehyde-3-phosphate dehydrogenase (GAPDH), beta-actin (ACTB), or phosphoglycerate kinase 1 (PGK1). Expression levels were calculated using the comparative cycle method and expressed as fold change (FC) to appropriate controls. The following TaqMan primers were used (Thermo Fisher Scientific): GAPDH (Hs02758991_g1, Mm99999915_g1 and Rn01775763_g1), PGK1 (Hs99999906_m1), ID2 (Hs04187239_m1), BMPR1B (Hs01010965_m1), CACNA2D4 (Hs00297782_m1), DUSP2 (Hs00358879_m1), NR4A1 (Hs00374226_m1), SGK1 (Hs00178612_m1), COL1A1 (Mm00801666_g1), COL3A1 (Hs00943809_m1 and Mm00802305_g1), ERBB4 (Hs00955525_m1 and Rn00572447_m1), ACTB (Mm02619580_g1) and ANP (Mm01255747_g1).

[2] = target: T1, ERBB4/ERBB4 (Homo sapiens, UniProt Q15303); experiment: NRG1 dose-response in ERBB4/ERBB4 dimerization assay with co-administration of EF-1; format: cell-based
T1 construct: host or cells: U2OS (osteosarcoma cells), PathHunter engineered line
T1 sequence (Q15303 26-1308): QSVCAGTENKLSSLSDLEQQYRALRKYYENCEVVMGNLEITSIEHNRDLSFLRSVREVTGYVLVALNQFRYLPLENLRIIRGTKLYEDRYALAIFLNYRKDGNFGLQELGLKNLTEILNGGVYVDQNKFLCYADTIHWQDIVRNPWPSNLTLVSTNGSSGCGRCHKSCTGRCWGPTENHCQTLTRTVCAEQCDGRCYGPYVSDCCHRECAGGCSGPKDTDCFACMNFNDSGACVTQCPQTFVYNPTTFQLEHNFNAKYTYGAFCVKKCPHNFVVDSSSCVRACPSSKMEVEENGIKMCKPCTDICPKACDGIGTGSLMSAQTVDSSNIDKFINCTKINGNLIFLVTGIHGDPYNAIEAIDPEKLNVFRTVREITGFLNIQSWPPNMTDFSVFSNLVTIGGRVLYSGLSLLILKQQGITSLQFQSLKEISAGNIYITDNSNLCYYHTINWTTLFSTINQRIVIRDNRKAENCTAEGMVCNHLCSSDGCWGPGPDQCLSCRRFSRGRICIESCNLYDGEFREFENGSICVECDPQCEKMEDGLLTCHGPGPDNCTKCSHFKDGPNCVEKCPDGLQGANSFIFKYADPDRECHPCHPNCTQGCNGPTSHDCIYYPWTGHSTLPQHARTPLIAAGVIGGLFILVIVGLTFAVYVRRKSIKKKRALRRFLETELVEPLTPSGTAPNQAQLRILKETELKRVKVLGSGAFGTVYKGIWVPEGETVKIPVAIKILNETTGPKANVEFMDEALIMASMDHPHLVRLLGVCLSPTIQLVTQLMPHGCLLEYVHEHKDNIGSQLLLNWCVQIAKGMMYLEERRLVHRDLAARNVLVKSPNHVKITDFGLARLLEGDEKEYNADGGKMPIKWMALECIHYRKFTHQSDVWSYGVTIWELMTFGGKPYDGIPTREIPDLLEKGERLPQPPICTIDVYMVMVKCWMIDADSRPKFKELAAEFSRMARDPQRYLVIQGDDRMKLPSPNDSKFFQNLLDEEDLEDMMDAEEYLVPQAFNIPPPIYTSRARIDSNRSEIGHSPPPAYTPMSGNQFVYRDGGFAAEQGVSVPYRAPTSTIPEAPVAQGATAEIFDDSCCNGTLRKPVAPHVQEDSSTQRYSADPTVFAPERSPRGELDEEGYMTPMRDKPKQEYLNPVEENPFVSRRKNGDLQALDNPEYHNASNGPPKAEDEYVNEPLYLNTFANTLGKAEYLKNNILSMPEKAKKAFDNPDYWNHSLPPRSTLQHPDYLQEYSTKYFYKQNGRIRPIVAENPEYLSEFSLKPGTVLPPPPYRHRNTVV
T1 sequence (Q15303 26-1308): as above
Description: U2OS ERBB4/ERBB4 dimerization cells were seeded at a density of 5 × 10^4 cells/well in 100 µL Cell Plating 0 Reagent, in white 96-well plates (PerkinElmer, 6005680) and incubated for 24 h at 37 °C, 5% CO2. […] Next, 110 µL PathHunter Flash Detection Reagent was added to each well and incubated at RT for 1 h after which the luminescence signal was measured using the Luminoskan Ascent (Thermo Fisher Scientific). Dose-response curves of the compounds were performed in 2-fold (0.0625–32 µM). The same experimental set-up was used for the U2OS ERBB2/ERBB4, U2OS ERBB2/ERBB3 and U2OS ERBB1/ERBB1 dimerization cell lines. […]
(b) DRC showing t he effect of NRG1 (full line with full circle) on the […]
1x10-6 M NRG1; n=5 biological replicates for NRG1 + EF -1 10 µM for all concentrations of NRG1, except […]
concentrations of NRG1, except n=2 for 3x10-7 M and 1x10-6 M NRG1). All data are presented as mean ± SD. Source data are provided as a Source Data file . CPD, compound; DRC; dose response curve; FC, fold change; F-NRG1, fluorescent ly labeled NRG1; M, molar concentration; NRG1, neuregulin-1; Veh, […]

[3] = system: Akt phosphorylation (pAkt/Akt); experiment: Western blot pAkt/Akt in iAMs; format: cell-based, rat; conditions: for phosphorylation of Akt in iAMs (in words): NRG1 10 nM or EF-1 32 µM; for pAkt/Akt, relative to vehicle of the same time point: iAMs, single replicates
Description: Hearts of the aforementioned transgenic mice were removed immediately after the animals had been killed. Cells and heart tissue were collected in RIPA lysis buffer (Thermo Fisher Scientific, 89900) supplemented with protease inhibitors (Merck, 11836153001) and phosphatase inhibitors (Merck, 4906845001) and the lysates were centrifuged at 14,000 × g for 10 min. The supernatants were collected, supplemented with sample buffer, and incubated at 95 °C for 5 min. Protein quantification was done with Pierce^TM BCA Protein Assay Kits (Thermo Fisher, 23227) according to the manufacturer’s instructions. Equal protein amounts of clarified lysates (20 µg) were subsequently separated by sodium dodecyl sulfate (SDS) polyacrylamide gel electrophoresis (165 V, 400 mA, 60 min) and transferred onto polyvinylidene fluoride membranes by electroblotting (100 V, 400 mA, 90 min). Next, the membranes were incubated for 1 h with Li-Cor blocking buffer (Li-Cor, 927-60001) at RT in Tris-buffered saline (TBS), supplemented with 0.1% Tween (BIO-RAD, 1706531). Next, primary antibodies were added (see below and Table 1a) in Li-Cor blocking buffer supplemented with 0.1% Tween, and the membranes were incubated overnight at 4 °C on a shaker. Following washing with TBS-0.1% Tween, the membranes were incubated for 1 h at RT with corresponding IRDye-conjugated secondary antibodies (See below and Table 1b) in Li-Cor blocking buffer supplemented with […] and 0.1% Tween. The membrane was visualized with the Odessey imaging system.

Compound: Cc1sc2nc(SC(C)C(=O)NCc3ccc4c(c3)OCO4)n(-c3ccccc3)c(=O)c2c1C (stereo not drawn) [NA-1]
effect on TGF-β1-induced COL3A1 expression in HCFs (in words) ([1]; 4–32 µM): did not affect COL3A1 expression | COL3A1 mRNA expression (FC) ([1]; NA-1, 1e-6 M): 1 | COL3A1 mRNA expression (FC) ([1]; NA-1, 4e-6 M): 0.6694 and 0.8324 and 0.8909 | COL3A1 mRNA expression (FC) ([1]; NA-1, 8e-6 M): 0.9443 and 0.7317 and 0.6882 | COL3A1 mRNA expression (FC) ([1]; NA-1, 1.6e-5 M): 0.7688 and 0.6597 and 0.5112 | COL3A1 mRNA expression (FC) ([1]; NA-1, 3.2e-5 M): 0.7866 and 0.7983 and 0.6723

Chemiluminescence-based competition assay with NRG1 and EF-1, signal ([2]; NRG1 1e-11 M, no EF-1): 0
Compound: neuregulin-1 [NRG1]
Chemiluminescence-based competition assay with NRG1 and EF-1, signal ([2]; NRG1 1e-7 M, no EF-1): 101.055 and 98.9454 and 97.307 and 102.693 and 100 and 86.6131 and 109.42 | Chemiluminescence-based competition assay with NRG1 and EF-1, signal ([2]; NRG1 3e-7 M, no EF-1): 95.7195 and 99.6882 and 104.291 and 93.5081 and 90.5392 and 120.599 and 107.787 | Chemiluminescence-based competition assay with NRG1 and EF-1, signal ([2]; NRG1 1e-6 M, no EF-1): 99.5216 and 99.741 and 109.693 and 98.1524 | phosphorylation of Akt in iAMs (in words) [3]: significant increase in phosphorylated Akt levels after already 15 minutes | pAkt/Akt, relative to vehicle of the same time point ([3]; NRG1 10 nM, 0 minutes): 1.052 and 0.8332 and 0.8199 | pAkt/Akt, relative to vehicle of the same time point ([3]; NRG1 10 nM, 15 minutes): 5.096 and 6.809 and 6.931 | pAkt/Akt, relative to vehicle of the same time point ([3]; NRG1 10 nM, 60 minutes): 4.363 and 4.094 and 3.405 | pAkt/Akt, relative to vehicle of the same time point ([3]; NRG1 10 nM, 120 minutes): 2.7652 and 3.7648 and 2.637 | pAkt/Akt, relative to vehicle of the same time point ([3]; NRG1 10 nM, 240 minutes): 2.317 and 2.06

Compound: O=C(NC1CC1)C(Sc1nc2ccccc2c(=O)n1C1CCCC1)c1ccccc1 (stereo not drawn) [EF-1]
Chemiluminescence-based competition assay with NRG1 and EF-1, signal ([2]; EF-1 1 µM, NRG1 1e-11 M): 0 | Chemiluminescence-based competition assay with NRG1 and EF-1, signal ([2]; EF-1 1 µM, NRG1 3e-7 M): 96.5132 and 159.12 and 135.867 and 151.14 | Chemiluminescence-based competition assay with NRG1 and EF-1, signal ([2]; EF-1 1 µM, NRG1 1e-6 M): 151.834 and 150.068 and 166.317 | Chemiluminescence-based competition assay with NRG1 and EF-1, signal ([2]; EF-1 10 µM, NRG1 1e-11 M): 0 | Chemiluminescence-based competition assay with NRG1 and EF-1, signal ([2]; EF-1 10 µM, NRG1 3e-7 M): 204.858 and 319.881 and 318.093 and 238.507 | Chemiluminescence-based competition assay with NRG1 and EF-1, signal ([2]; EF-1 10 µM, NRG1 1e-6 M): 299.545 | potentiation of NRG1-induced ERBB4 homodimerization ([2]; EF-1 32 µM): 299.5% | Chemiluminescence-based competition assay with NRG1 and EF-1, signal ([2]; EF-1 32 µM, NRG1 1e-11 M): 0 | Chemiluminescence-based competition assay with NRG1 and EF-1, signal ([2]; EF-1 32 µM, NRG1 1e-7 M): 179.706 and 213.306 and 260.377 and 233.656 and 250.186 | Chemiluminescence-based competition assay with NRG1 and EF-1, signal ([2]; EF-1 32 µM, NRG1 3e-7 M): 277.077 and 253.156 | Chemiluminescence-based competition assay with NRG1 and EF-1, signal ([2]; EF-1 32 µM, NRG1 1e-6 M): 257.842 and 279.551 | time of peak Akt phosphorylation ([3]; EF-1): 2 h | pAkt/Akt, relative to vehicle of the same time point ([3]; EF-1 32 µM, 0 minutes): 0.748 and 0.7404 and 0.672 and 0.9718 | pAkt/Akt, relative to vehicle of the same time point ([3]; EF-1 32 µM, 15 minutes): 0.8783 and 0.9705 and 0.9844 and 0.887 | pAkt/Akt, relative to vehicle of the same time point ([3]; EF-1 32 µM, 60 minutes): 1.284 and 1.335 and 1.4576 and 1.506 | pAkt/Akt, relative to vehicle of the same time point ([3]; EF-1 32 µM, 120 minutes): 2.136 and 1.473 and 2.15 and 1.815 | pAkt/Akt, relative to vehicle of the same time point ([3]; EF-1 32 µM, 240 minutes): 2.021 and 1.657 and 2.184 and 2.136 | phosphorylation of Akt in iAMs (in words) [3]: time-dependent phosphorylation of Akt | COL3A1 mRNA expression (FC) ([1]; EF-1 + SiERBB4, 1e-6 M): 1 | COL3A1 mRNA expression (FC) ([1]; EF-1 + SiERBB4, 4e-6 M): 0.5373 and 0.7163 and 0.5917 and 0.6311 and 0.7899 and 0.8499 | COL3A1 mRNA expression (FC) ([1]; EF-1 + SiERBB4, 8e-6 M): 0.8243 and 0.8469 and 0.7111 and 0.7439 and 0.7398 and 0.6183 | COL3A1 mRNA expression (FC) ([1]; EF-1 + SiERBB4, 1.6e-5 M): 0.5202 and 0.6505 and 0.7517 and 0.6477 and 0.5129 | COL3A1 mRNA expression (FC) ([1]; EF-1 + SiERBB4, 3.2e-5 M): 0.7721 and 0.6715 and 0.5121 and 0.7108 and 0.5403 and 0.6885 | COL3A1 mRNA expression (FC) ([1]; EF-1 + SiScr, 1e-6 M): 0.9505 and 1.0731 and 0.9765 | COL3A1 mRNA expression (FC) ([1]; EF-1 + SiScr, 4e-6 M): 0.3565 and 0.5152 and 0.404 | COL3A1 mRNA expression (FC) ([1]; EF-1 + SiScr, 8e-6 M): 0.4855 and 0.3848 and 0.5526 | COL3A1 mRNA expression (FC) ([1]; EF-1 + SiScr, 1.6e-5 M): 0.2758 and 0.3929 and 0.4764 | COL3A1 mRNA expression (FC) ([1]; EF-1 + SiScr, 3.2e-5 M): 0.4172 and 0.4035 and 0.5599 | decrease of TGF-β1-induced COL3A1 mRNA levels ([1]; HCFs, dose-dependent, 4–32 µM): up to 50%
